Target: T1, PKCζ (protein kinase C ζ) (Homo sapiens, UniProt Q05513)
T1 sequence (Q05513 1-592): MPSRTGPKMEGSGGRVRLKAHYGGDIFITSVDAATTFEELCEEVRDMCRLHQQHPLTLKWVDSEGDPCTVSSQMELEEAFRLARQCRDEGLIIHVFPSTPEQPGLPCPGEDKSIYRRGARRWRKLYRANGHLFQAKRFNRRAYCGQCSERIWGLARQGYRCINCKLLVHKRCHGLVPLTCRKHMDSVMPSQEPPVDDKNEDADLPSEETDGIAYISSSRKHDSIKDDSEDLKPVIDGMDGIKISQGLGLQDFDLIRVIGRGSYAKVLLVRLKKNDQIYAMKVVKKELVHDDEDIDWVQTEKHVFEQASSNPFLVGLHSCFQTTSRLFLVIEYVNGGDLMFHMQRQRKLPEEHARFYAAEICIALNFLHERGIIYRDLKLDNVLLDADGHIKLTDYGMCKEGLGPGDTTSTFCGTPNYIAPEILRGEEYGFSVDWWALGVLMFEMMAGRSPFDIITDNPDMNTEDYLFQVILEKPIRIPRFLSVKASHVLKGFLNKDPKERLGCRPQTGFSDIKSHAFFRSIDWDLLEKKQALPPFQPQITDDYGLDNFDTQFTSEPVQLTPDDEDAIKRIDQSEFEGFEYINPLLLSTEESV
Test: homogeneous TR-FRET kinase activity assay
Assay type: biochemical

Substance | IC50 [µM]
fibrosterol sulfate A [compound 1] | 16.4
fibrosterol sulfate B [compound 2] | 5.6

Source: PMC2889921 (The Journal of organic chemistry, 2009)
